From patent US12612395B2, “Rocaglate derivatives and uses thereof” (TRUSTEES OF BOSTON UNIVERSITY, priority 2023, dated 2026)
pEC50: −log10 of the molar value. Where two headings read alike, the source gives them in different places.

Legend:
GBM0308 non-CSCs = assay: Dose-response killing of GBM non-CSCs (PI/Hoechst, Celigo cytometer); type: cell-based; conditions: for Non-CSCs Max. observed efficacy (% dead cells) / Emax: 72 h; for Emax / EC50: Homo sapiens; for EC50: read-out: Non-CSC EC50 (μM)
Text: (§1) The inventors first evaluated a cohort of seven rocaglate translation inhibitors (1, 3-7, and 9, FIG. 1A and Table 1, compounds 2 and 8 were not tested due to unavailability). To assay for compounds that selectively affect GBM CSCs, the inventors employed the patient-derived tumor-initiating cell (TIC) cell line […] that forms neurospheres (consisting exclusively of tumor-initiating cells or CSCs) when cultured in neurobasal (NBE) medium. Upon exposure to serum and growth factor withdrawal, however, the cell line differentiates, acquires a flattened morphology, and forms a non-CSC population.^20 Thus, compounds can be tested in parallel to assess their effect on GBM CSCs vs. GBM non-CSCs as separate populations with a clean and robust response. This approach has been previously used to perform RNAi-based genetic screens to identify modulators of CSCs.^20 In this study, GBM0308 cells, cultured in stem cell conditions to form CSCs or in medium containing serum to induce differentiation into a non-CSC population, were treated in parallel with compounds at varying doses. Three days post-treatment, propidium iodide (PI) and Hoechst staining were performed and quantified using a Celigo image cytometer. Hoechst dye stained all […] nucleated cells, while PI exclusively stained dead cells. Cell viability and the percentage of cell death were then determined.
(§2) Cell Culture: Glioblastoma stem cell lines GBM0308, BT145, and BT112 were cultured in neurobasal (NBE medium) containing N-2 and B-27 supplements, EGF, bFGF, L-glutamine, and Penicillin-Streptomycin), as described previously.^19 Adherent GBM cells were cultured in serum-containing DMEM media (Invitrogen) supplemented with 10% fetal bovine serum (Corning Cellgro™). Cells were incubated at 37° C. and 5% CO2 to allow neurosphere formation. For seeding and subculturing, the neurospheres were gently trypsinized with 0.025% trypsin to form a single-cell suspension.
(§3) Dose-Response Testing in GBM Cells: Briefly, on day 1, cells were seeded in triplicate. For CSCs, 1500 cells/well were plated in a low attachment 96-well plate with NBE media and incubated for 3 days at 37° C. and 5% CO2 to allow the formation of neurospheres. For non-CSCs, 3000 cells/well were plated in a 96-well plate with DMEM media supplemented with 10% FBS. Similarly, the assay plates were also incubated for the same duration. Compound treatments started on day 4. Each compound was resuspended in DMSO and then diluted to different concentrations in media to a final concentration of DMSO less than 1%. The compounds were added at concentrations of 10, 3.3, 1.11, 0.37, 0.12, 0.041, 0.013, and 0.004 µM, respectively. DMSO-treated cells served as a control. After 72 h incubation with the compounds, fluorescent stains, propidium iodide, and Hoechst 33342 (Life Technologies, Carlsbad, CA), were used to stain the GBM cells to determine cell viability. A staining solution in 1×PBS was prepared by mixing PI and Hoechst 33342 to working concentrations of 2.5 μM and 20 μM, respectively. 20 μL of this staining solution was added per well, and plates were incubated at 37° C. and 5% CO2 for 60 min. After incubation, plates were read by Celigo imaging cytometer using an inbuilt Celigo application; Cell Viability (Dead+Total). For the viability measurement, the total number of neurospheres/cells and dead neurospheres/cells in each well were counted by the cytometer. The percentage of PI+ cells was normalized to DMSO and plotted against the drug concentration to calculate the EC50 with a four-parameter, variable-slope dose-response curve with an upper constraint of <100% dead cells and a lower constraint of =0% dead cells (GraphPad Prism v.10.0.0). For all dose response experiments, the experimental maximal efficacy (maximum observed % cell death) is reported. Relative EC50 values are reported for all compounds killing >50% of cells.

GBM0308 CSCs = assay: Dose-response killing of GBM CSCs (PI/Hoechst, Celigo cytometer); type: cell-based
Text: as §1, §2, §3

[1] = Table 1, GBM0308 non-CSCs, up to 10 μM
[2] = Table 1, GBM0308 CSCs, 72 h, up to 10 μM
[3] = Table 1, GBM0308 CSCs, 72 h treatment, relative EC50, given for compounds causing at least 50% cell death, read-out: CSCs EC50
[4] = read-out: Non-CSC Max. observed efficacy (% dead cells), Table 7, cell line not given
[5] = Homo sapiens, 72 h, read-out: CSC Max. observed efficacy (% dead cells), Table 7, cell line not given
[6] = Homo sapiens, read-out: CSC EC50 (μM), Table 7, cell line not given
[7] = Table 7, cell line not given, read-out: Non-CSC Max. observed efficacy (% dead cells)
[8] = Homo sapiens, 72 h, Table 7, cell line not given, read-out: CSC Max. observed efficacy (% dead cells)
[9] = Homo sapiens, Table 7, cell line not given, read-out: CSC EC50
[10] = Table 2, GBM0308 non-CSCs, highest tested concentration 10 μM
[11] = Table 2, GBM0308 CSCs, 72 h, highest tested concentration 10 μM
[12] = read-out: Non-CSCs Max. observed efficacy (% dead cells), Table 2, GBM0308 non-CSCs, highest tested concentration 10 μM
[13] = Homo sapiens, 72 h, read-out: CSCs EC50 (μM), Table 2, GBM0308 CSCs, 72 h treatment, relative EC50
[14] = Homo sapiens, 72 h, read-out: CSCs Max. observed efficacy (% dead cells), Table 2, GBM0308 CSCs, 72 h, highest tested concentration 10 μM

COC(=O)[C@H]1[C@@H](O)[C@@]2(O)c3c(OC)cc(OC)cc3O[C@@]2(c2ccc(Br)cc2)[C@@H]1c1ccccc1 [(−)-9, reference compound]
Non-CSCs Max. observed efficacy (% dead cells) (GBM0308 non-CSCs; [1]): 25%
CSCs Max. observed efficacy (% dead cells) (GBM0308 CSCs; [2]): 88%
pEC50 (GBM0308 CSCs; [3]): 6.82

COc1cc(OC)c2c(c1)O[C@@]1(c3ccc(Br)cc3)[C@H](c3ccccc3)[C@@H](C(=O)NS(=O)(=O)N3CCCC3)[C@@H](O)[C@@]21O [ZW-12-37, (1R,2R,3S,3aR,8bS)-3a-(4-bromophenyl)-1,8b-dihydroxy-6,8-dimethoxy-3-phenyl-N-(pyrrolidin-1-ylsulfonyl)-2,3,3a,8b-tetrahydro-1H-cyclopenta[b]benzofuran-2-carboxamide]
Emax (GBM0308 non-CSCs; [4]): 25%
EC50 (GBM0308 non-CSCs): 0.401 µM
Emax (GBM0308 CSCs; [5]): 95%
EC50 (GBM0308 CSCs; [6]): 0.7 µM

COc1cc(OC)c2c(c1)O[C@@]1(c3ccc(Br)cc3)[C@H](c3ccccc3)[C@@H](C(=O)NS(=O)(=O)N(C)C)[C@@H](O)[C@@]21O (racemic) [BUCMD747 (rac), (1R,2R,3S,3aR,8bS)-3a-(4-bromophenyl)-N-(N,N-dimethylsulfamoyl)-1,8b-dihydroxy-6,8-dimethoxy-3-phenyl-2,3,3a,8b-tetrahydro-1H-cyclopenta[b]benzofuran-2-carboxamide]
Emax (GBM0308 non-CSCs; [7]): 27%
Emax (GBM0308 CSCs; [8]): 89%
pEC50 (GBM0308 CSCs; [9]): 6.34

CCN(CC)S(=O)(=O)NC(=O)[C@H]1[C@@H](O)[C@@]2(O)c3c(OC)cc(OC)cc3O[C@@]2(c2ccc(Br)cc2)[C@@H]1c1ccccc1 [ZW-12-35, (1R,2R,3S,3aR,8bS)-3a-(4-bromophenyl)-N—(N,N-diethylsulfamoyl)-1,8b-dihydroxy-6,8-dimethoxy-3-phenyl-2,3,3a,8b-tetrahydro-1H-cyclopenta[b]benzofuran-2-carboxamide]
Emax (GBM0308 non-CSCs; [4]): 16%
Emax (GBM0308 CSCs; [5]): 92%
EC50 (GBM0308 CSCs; [6]): 1.18 µM

COc1ccc([C@@]23Oc4cc(OC)cc(OC)c4[C@]2(O)[C@H](O)[C@H](C(=O)N(C)OC)[C@H]3c2ccccc2)cc1 (racemic) [rac-6, rohinitib, reference compound]
Non-CSCs Max. observed efficacy (% dead cells) (GBM0308 non-CSCs; [1]): 25%
CSCs Max. observed efficacy (% dead cells) (GBM0308 CSCs; [2]): 81%
pEC50 (GBM0308 CSCs; [3]): 6.04

methyl rocaglate [(−)-3, reference compound]
Non-CSCs Max. observed efficacy (% dead cells) (GBM0308 non-CSCs; [1]): 23%
CSCs Max. observed efficacy (% dead cells) (GBM0308 CSCs; [2]): 75%
pEC50 (GBM0308 CSCs; [3]): 5.78

COc1cc(OC)c2c(c1)O[C@@]1(c3ccc(Br)cc3)[C@H](c3ccccc3)[C@@H](C(=O)NS(=O)(=O)N3CCOCC3)[C@@H](O)[C@@]21O [ZW-12-38, (1R,2R,3S,3aR,8bS)-3a-(4-bromophenyl)-1,8b-dihydroxy-6,8-dimethoxy-N-(morpholinosulfonyl)-3-phenyl-2,3,3a,8b-tetrahydro-1H-cyclopenta[b]benzofuran-2-carboxamide]
Emax (GBM0308 non-CSCs; [4]): 19%
EC50 (GBM0308 non-CSCs): 0.463 µM
Emax (GBM0308 CSCs; [5]): 95%
EC50 (GBM0308 CSCs; [6]): 0.7 µM

COc1ccc([C@@]23Oc4cc(OC)cc(OC)c4[C@]2(O)[C@H](O)[C@H](C(=O)O)[C@H]3c2ccccc2)cc1 [(−)-10, rocaglaic acid]
Non-CSCs Max. observed efficacy (% dead cells) (GBM0308 non-CSCs; [10]): 27%
CSCs Max. observed efficacy (% dead cells) (GBM0308 CSCs; [11]): 68%

COc1cc(OC)c2c(c1)O[C@@]1(c3ccc(C(F)(F)F)cc3)[C@H](c3ccccc3)[C@@H](C(=O)NS(=O)(=O)N(C)C)[C@@H](O)[C@@]21O [ZW-12-29, (1R,2R,3S,3aR,8bS)—N—(N,N-dimethylsulfamoyl)-1,8b-dihydroxy-6,8-dimethoxy-3-phenyl-3a-(4-(trifluoromethyl)phenyl)-2,3,3a,8b-tetrahydro-1H-cyclopenta[b]benzofuran-2-carboxamide]
Emax (GBM0308 non-CSCs; [4]): 26%
Emax (GBM0308 CSCs; [5]): 57%
EC50 (GBM0308 CSCs; [6]): 5.63 µM

COc1cc(OC)c2c(c1)O[C@@]1(c3ccc(Br)cc3)[C@H](c3ccccc3)[C@@H](C(=O)NS(=O)(=O)N(C)C(C)C)[C@@H](O)[C@@]21O [ZW-12-34, (1R,2R,3S,3aR,8bS)-3a-(4-bromophenyl)-1,8b-dihydroxy-N—(N-isopropyl-N-methylsulfamoyl)-6,8-dimethoxy-3-phenyl-2,3,3a,8b-tetrahydro-1H-cyclopenta[b]benzofuran-2-carboxamide]
Emax (GBM0308 non-CSCs; [4]): 18%
Emax (GBM0308 CSCs; [5]): 79%
EC50 (GBM0308 CSCs; [6]): 1.85 µM

COc1ccc([C@@]23Oc4cc(OC)cc(OC)c4[C@]2(O)[C@H](O)[C@H](C(=O)NS(=O)(=O)N(C)C)[C@H]3c2ccccc2)cc1 [(−)-16, (1R,2R,3S,3aR,8bS)—N—(N,N-dimethylsulfamoyl)-1,8b-dihydroxy-6,8-dimethoxy-3a-(4-methoxyphenyl)-3-phenyl-2,3,3a,8b-tetrahydro-1H-cyclopenta[b]benzofuran-2-carboxamide]
Emax (GBM0308 non-CSCs; [12]): 23%
EC50 (GBM0308 CSCs; [13]): 1 to 10 µM
Emax (GBM0308 CSCs; [14]): 76%
pEC50 (GBM0308 CSCs; read-out: CSCs EC50, Table 2, GBM0308 CSCs, 72 h treatment, relative EC50): 5.76

COc1ccc([C@@]23Oc4cc(OC)cc(OC)c4[C@]2(O)[C@H](O)[C@H](C(=O)O)[C@H]3c2ccccc2)cc1 [(+)-10, rocaglaic acid]
cytotoxic activity against non-CSCs, in words (GBM0308 non-CSCs; GBM0308 non-CSCs): limited activity
Non-CSCs Max. observed efficacy (% dead cells) (GBM0308 non-CSCs; [10]): 30%
cytotoxic activity against CSCs, in words (GBM0308 CSCs; GBM0308 CSCs): limited activity
CSCs Max. observed efficacy (% dead cells) (GBM0308 CSCs; [11]): 58%
pEC50 (GBM0308 CSCs; Table 2, GBM0308 CSCs, 72 h treatment, relative EC50, read-out: CSCs EC50): 5.15

COc1cc(OC)c2c(c1)O[C@@]1(c3ccc(Br)cc3)[C@H](c3ccccc3)[C@@H](C(=O)NS(=O)(=O)N(C)C)[C@@H](O)[C@@]21O [BUCMD790 (—), (1R,2R,3S,3aR,8bS)-3a-(4-bromophenyl)-N-(N,N-dimethylsulfamoyl)-1,8b-dihydroxy-6,8-dimethoxy-3-phenyl-2,3,3a,8b-tetrahydro-1H-cyclopenta[b]benzofuran-2-carboxamide]
Emax (GBM0308 non-CSCs; [7]): 26%
Emax (GBM0308 CSCs; [8]): 93%
pEC50 (GBM0308 CSCs; [9]): 7.35

COc1cc(OC)c2c(c1)O[C@@]1(c3ccc(Br)cc3)[C@H](c3ccccc3)[C@@H](C(=O)NS(C)(=O)=O)[C@@H](O)[C@@]21O [(−)-19, (1R,2R,3S,3aR,8bS)-3a-(4-bromophenyl)-1,8b-dihydroxy-6,8-dimethoxy-N-(methylsulfonyl)-3-phenyl-2,3,3a,8b-tetrahydro-1H-cyclopenta[b]benzofuran-2-carboxamide]
Emax (GBM0308 non-CSCs; [12]): 20%
EC50 (GBM0308 CSCs; [13]): 0.095 µM
Emax (GBM0308 CSCs; [14]): 92%
pEC50 (GBM0308 CSCs; Homo sapiens, read-out: CSC EC50, text, GBM0308 CSCs): > 6.90

COc1cc(OC)c2c(c1)O[C@@]1(c3ccc(Br)cc3)[C@H](c3ccccc3)[C@@H](C(=O)NS(=O)(=O)N3CC(C)C3)[C@@H](O)[C@@]21O [ZW-12-36, (1R,2R,3S,3aR,8bS)-3a-(4-bromophenyl)-1,8b-dihydroxy-6,8-dimethoxy-N-((3-methylazetidin-1-yl)sulfonyl)-3-phenyl-2,3,3a,8b-tetrahydro-1H-cyclopenta[b]benzofuran-2-carboxamide]
Emax (GBM0308 non-CSCs; [4]): 11%
Emax (GBM0308 CSCs; [5]): 96%
EC50 (GBM0308 CSCs; [6]): 0.804 µM
